Earlier results in patent publication US20080241073A1, “Polymeric Micelle Type Mri Imaging Agent” (Kanagawa Academy of Science and Technology, priority 2004, published 2008).

Conditions: Corot et al., Non-patent Literature 2

- T1 relaxivity: 3.4
Structure (SMILES): O=C([O-])CN1CCN(CC(=O)[O-])CCN(CC(=O)O)CCN(CC(=O)[O-])CC1.[Gd+3] [DOTA-Gd]
